In PMC8523698, “Preclinical characterization of an intravenous coronavirus 3CL protease inhibitor for the potential treatment of COVID19” (Nature Communications, 2021):
Values joined by “and” are separate entries in the source; they are usually repeats but may differ in a detail not shown here. Identical values can stand only once.

Tested on: MRC-5 cells
Assay: Cytotoxicity in MRC-5 cells
Conditions: for % Effect: CC50 run 30-Apr-2020

Compound: COc1cccc2[nH]c(C(=O)N[C@@H](CC(C)C)C(=O)N[C@@H](C[C@@H]3CCNC3=O)C(=O)CO)cc12 [PF-00835231-00]
- % Well Effect (0.0316422 uM, minus efflux inhibitor, CC50 run 24-Apr-2020): 5.91% and -1.40%
- % Well Effect (0.100053 uM, minus efflux inhibitor, CC50 run 24-Apr-2020): 0.31% and -2.42%
- % Well Effect (0.316367 uM, minus efflux inhibitor, CC50 run 24-Apr-2020): 0.82% and -3.88%
- % Well Effect (3.16311 uM, minus efflux inhibitor, CC50 run 24-Apr-2020): 2.27% and -2.51%
- % Well Effect (3.16311 uM, plus 0.5 uM efflux inhibitor, CC50 run 22-may-2020): 2.26%
- % Well Effect (3.16311 uM, plus 0.5 uM efflux inhibitor, CC50 run 24-Apr-2020): -4.43%
- % Well Effect (10.0018 uM, minus efflux inhibitor, CC50 run 24-Apr-2020): 4.47% and -3.27%
- % Well Effect (10.0018 uM, plus 0.5 uM efflux inhibitor, CC50 run 22-may-2020): 2.88%
- % Well Effect (10.0018 uM, plus 0.5 uM efflux inhibitor, CC50 run 24-Apr-2020): -5.99%
- % Well Effect (31.6256 uM, minus efflux inhibitor, CC50 run 24-Apr-2020): 0.83% and -8.49%
- % Well Effect (31.6256 uM, plus 0.5 uM efflux inhibitor, CC50 run 22-may-2020): 5.31%
- % Well Effect (31.6256 uM, plus 0.5 uM efflux inhibitor, CC50 run 24-Apr-2020): -3.70%
- % Well Effect (100 uM, minus efflux inhibitor, CC50 run 24-Apr-2020): -3.72% and -12.98%
- % Well Effect (100 uM, plus 0.5 uM efflux inhibitor, CC50 run 22-may-2020): -0.43%
- % Well Effect (100 uM, plus 0.5 uM efflux inhibitor, CC50 run 24-Apr-2020): -3.29%
- % Well Effect (CC50 data, MRC-5 cells, run 22-may-2020, plate GCNS00043792A, [Assay] 0.031642 uM): -3.27% and -2.12%
- % Well Effect (CC50 data, MRC-5 cells, run 22-may-2020, plate GCNS00043792A, [Assay] 0.100053 uM): -1.81% and 2.13%
- % Well Effect (CC50 data, MRC-5 cells, run 22-may-2020, plate GCNS00043792A, [Assay] 0.316367 uM): -2.43% and 2.23%
- % Well Effect (CC50 data, MRC-5 cells, run 22-may-2020, plate GCNS00043792A, [Assay] 1.00035 uM): 1.33% and 1.48%
- % Well Effect (CC50 data, MRC-5 cells, run 22-may-2020, plate GCNS00043792A, [Assay] 3.16311 uM): -3.27%
- % Well Effect (CC50 data, MRC-5 cells, run 22-may-2020, plate GCNS00043792A, [Assay] 10.0018 uM): -1.55%
- % Well Effect (CC50 data, MRC-5 cells, run 22-may-2020, plate GCNS00043792A, [Assay] 31.6256 uM): 0.64%
- % Well Effect (CC50 data, MRC-5 cells, run 22-may-2020, plate GCNS00043792A, [Assay] 100 uM): -1.12%
- % Well Effect (CC50 data, MRC-5 cells, run 24-Apr-2020, plate GCNS00043676A, [Assay] 0.0316422 uM): -8.00% and -3.89%
- % Well Effect (CC50 data, MRC-5 cells, run 24-Apr-2020, plate GCNS00043676A, [Assay] 0.100053 uM): -11.58% and -9.10%
- % Well Effect (CC50 data, MRC-5 cells, run 24-Apr-2020, plate GCNS00043676A, [Assay] 0.316367 uM): -6.82% and -8.60%
- % Well Effect (CC50 data, MRC-5 cells, run 24-Apr-2020, plate GCNS00043676A, [Assay] 1.00035 uM): -10.61% and -9.50%
- % Well Effect (CC50 data, MRC-5 cells, run 24-Apr-2020, plate GCNS00043676A, [Assay] 3.16311 uM): -5.78%
- % Well Effect (CC50 data, MRC-5 cells, run 24-Apr-2020, plate GCNS00043676A, [Assay] 10.0018 uM): -3.01%
- % Well Effect (CC50 data, MRC-5 cells, run 24-Apr-2020, plate GCNS00043676A, [Assay] 31.6256 uM): -3.17%
- % Well Effect (CC50 data, MRC-5 cells, run 24-Apr-2020, plate GCNS00043676A, [Assay] 100 uM): 0.84%
- % Effect (Concentration 0.78125, minus efflux inhibitor): -1.26% and -6.59%
- % Effect (Concentration 1.5625, minus efflux inhibitor): -9.86% and -8.48%
- % Effect (Concentration 3.125, minus efflux inhibitor): -3.51% and -6.64%
- % Effect (Concentration 6.25, minus efflux inhibitor): -4.42% and -7.91%
- % Effect (Concentration 12.5, minus efflux inhibitor): -6.72% and -7.11%
- % Effect (Concentration 25, minus efflux inhibitor): -6.44% and -6.96%
- % Effect (Concentration 50, minus efflux inhibitor): -10.88% and -4.85%
- % Effect (Concentration 100, minus efflux inhibitor): -4.27% and -7.38%
